Source: EP4177246A1, “FUSED OXAZEPINES AS INHIBITORS OF PEROXIREDOXINS” (Centro Atlántico del Medicamento, SA, priority 2021, dated 2023)

Tested on: PRDX1 and/or PRDX2
Assay: Resin-bound affinity chromatography with competition/elution by free compound (type of binding)
Set-up: species or system human
Settings: MDA-MB-231 cell lysates; pre-incubation 1.5 hours with 50 micrograms of free compound; SDS-PAGE, silver staining
Method: The immobilization of compound (24) and the identification of its targets was accomplished using a previously described method [Orive-Ramos A, Seoane S, Ocaña A, Pandiella A, Montero JC. Regulation of the prometastatic neuregulin-MMP13 axis by SRC family kinases: therapeutic implications. Mol Oncol. 2017 Dec; 11(12): 1788-1805] (ref. 32). Briefly, 5 mg of the compound was dissolved in a coupling solution (50% dimethylformamide, 50% 0.1 M Na2CO3), and incubated with 0.5 mg of epoxy-activated sepharose 6B (GE Healthcare Life Sciences; Piscataway, NJ, USA), obtaining a CM728-coupled resin. A control resin was prepared without the compound (uncoupled). Both resins were incubated with 25 mg of cell extracts from MDA-MB-231 and BT-549 cancer cells.
The resulting complexes were retrieved by centrifugation, washed with lysis buffer, re-suspended and boiled in loading buffer and resolved in SDS-PAGE. The gel was silver stained and the bands of interest were excised, digested by trypsin (Figure 1). […]
In another experiment the resins collected after being incubated with cell lysates (analyzed in lanes 1 and 2) were further treated with free compound 24 to elute non-covalent compound 24 specific, binding proteins. […]

## O=C1C2=C(C(=O)c3c(O)ccc(O)c31)N(c1cccnc1)Cc1ccccc1O2 [Compound 24, 7,10-dihydroxy-12-(pyridin-3-yl)-12,13-dihydrobenzo[f]naphtho[2,3-b][1,4]oxazepine-6,11-dione]
  manner in which compound binds to PRDX1 and/or PRDX2: non-reversible covalent manner
